Experimental data as given in US8354419B2, “Benzimidazole analogues for the treatment or prevention of flavivirus infections” (Vertex Pharmaceuticals Incorporated, priority 2009, dated 2013).
pEC50: −log10 of the molar value.

Test system: HCV (Ib) RNA replication
Test: Cell-based luciferase reporter HCV (1b) RNA replication assay (replicon cell lines Huh-7 5.2 and ET)
Design: species or system Hepatitis C virus
Conditions: Hepatitis C virus, Huh-7, 96 h, HCV 1b genotype replicon, luciferase readout, 4 days incubation; read-out: EC50_1b
Summary of the method: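 Compounds were tested at eleven concentrations in duplicate over 4 days at 37 °C, 5% CO2. The cells were luciferase-reporter HCV 1b replicon lines 5.2 (NS5A adaptive mutation) or ET (NS4B mutation). Luminescence of lysates was measured, and IC50s were derived by nonlinear curve fitting.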

SMILES	pEC50
COC(=O)N[C@H](C(=O)N1[C@H](c2nc3cc(-c4ccc(-c5ccc6nc([C@@H]7CCC(C)(C)N7C(=O)[C@@H](NC(=O)OC)C(C)C)[nH]c6c5)cc4)ccc3[nH]2)CCC1(C)C)C(C)C [Compound 311]	≥ 8.30
COC(=O)N[C@H](C(=O)N1[C@H](C)CC[C@H]1c1nc2cc(-c3ccc(-c4ccc5[nH]c([C@@H]6CC[C@H](C)N6C(=O)[C@@H](NC(=O)OC)C(C)C)nc5c4)cc3)ccc2[nH]1)C(C)C [Compound 313]	≥ 8.30
COC(=O)N[C@H](C(=O)N1[C@@H](C)CC[C@H]1c1nc2cc(-c3cc(F)c(-c4ccc5[nH]c([C@@H]6CC[C@H](C)N6C(=O)[C@@H](NC(=O)OC)C(C)C)nc5c4)cc3F)ccc2[nH]1)C(C)C [Compound 314]	≥ 8.30
COC(=O)N[C@H](C(=O)N1C[C@@H](C(F)F)C[C@H]1c1nc2cc(-c3ccc(-c4ccc5[nH]c([C@@H]6C[C@H](C(F)F)CN6C(=O)[C@@H](NC(=O)OC)C(C)C)nc5c4)cc3)ccc2[nH]1)C(C)C [Compound 315]	≥ 8.30
COC(=O)N[C@H](C(=O)N1C[C@@H](C(F)(F)F)C[C@H]1c1nc2cc(-c3ccc(-c4ccc5[nH]c([C@@H]6C[C@H](C(F)(F)F)CN6C(=O)[C@@H](NC(=O)OC)C(C)C)nc5c4)cc3)ccc2[nH]1)C(C)C [Compound 316]	≥ 8.30
COC(=O)N[C@H](C(=O)N1[C@@H](C)CC[C@H]1c1nc2ccc(-c3ccc(-c4ccc5nc([C@@H]6CC[C@H](C)N6C(=O)[C@@H](NC(=O)OC)C(C)C)[nH]c5c4)c4nsnc34)cc2[nH]1)C(C)C [Compound 317]	≥ 8.30
COC(=O)N[C@H](C(=O)N1[C@@H](C)CC[C@H]1c1nc2cc(-c3ccc(-c4ccc5[nH]c([C@@H]6CC[C@H](C)N6C(=O)[C@@H](NC(=O)OC)C(C)C)nc5c4)c4c3OCO4)ccc2[nH]1)C(C)C [Compound 318]	≥ 8.30
COC(=O)N[C@H](C(=O)N1[C@@H](C)CC[C@H]1c1nc2cc(-c3csc4c(-c5ccc6[nH]c([C@@H]7CC[C@H](C)N7C(=O)[C@@H](NC(=O)OC)C(C)C)nc6c5)csc34)ccc2[nH]1)C(C)C [Compound 319]	≥ 8.30
COC(=O)N[C@H](C(=O)N1C[C@@H](C)C[C@H]1c1nc2cc(-c3ccc(-c4ccc5[nH]c([C@@H]6CC[C@H](C)N6C(=O)[C@@H](NC(=O)OC)C(C)C)nc5c4)cc3)ccc2[nH]1)C(C)C [Compound 320]	≥ 8.30
COC(=O)N[C@H](C(=O)N1[C@@H](C)CC[C@H]1c1nc2cc(-c3cc4sc(-c5ccc6[nH]c([C@@H]7CC[C@H](C)N7C(=O)[C@@H](NC(=O)OC)C(C)C)nc6c5)cc4s3)ccc2[nH]1)C(C)C [Compound 321]	≥ 8.30
COC(=O)N[C@H](C(=O)N1[C@@H](C)CC[C@H]1c1nc2ccc(-c3ccc(-c4ccc5nc([C@@H]6CC[C@H](C)N6C(=O)[C@@H](NC(=O)OC)C(C)C)[nH]c5c4)c(F)c3)cc2[nH]1)C(C)C [Compound 322]	≥ 8.30
COC(=O)N[C@H](C(=O)N1C[C@@H](C)C[C@H]1c1nc2cc(-c3cc4sc(-c5ccc6nc([C@@H]7C[C@H](C)CN7C(=O)[C@@H](NC(=O)OC)C(C)C)n(C)c6c5)cc4s3)ccc2[nH]1)C(C)C [Compound 323]	≥ 8.30
COC(=O)N[C@H](C(=O)N1[C@@H](C)CC[C@H]1c1nc2cc(C#CC#Cc3ccc4[nH]c([C@@H]5CC[C@H](C)N5C(=O)[C@@H](NC(=O)OC)C(C)C)nc4c3)ccc2[nH]1)C(C)C [Compound 324]	≥ 8.30
COC(=O)N[C@H](C(=O)N1CC(C)(C)C[C@H]1c1nc2cc(-c3cc4sc(-c5ccc6[nH]c([C@@H]7CC(C)(C)CN7C(=O)[C@@H](NC(=O)OC)C(C)C)nc6c5)cc4s3)ccc2[nH]1)C(C)C [Compound 325]	≥ 8.30
COC(=O)N[C@H](C(=O)N1CCC[C@H]1c1nc2cc(N3CCN(c4ccc5nc([C@@H]6CCCN6C(=O)[C@@H](NC(=O)OC)C(C)C)[nH]c5c4)[C@H](C)C3)ccc2[nH]1)C(C)C [Compound 326]	≥ 8.30
COC(=O)N[C@H](C(=O)N1C[C@@H](C)C[C@H]1c1nc2cc(-c3ccc(-c4ccc5[nH]c([C@@H]6CC(C)(C)CN6C(=O)[C@@H](NC(=O)OC)C(C)C)nc5c4)cc3)ccc2[nH]1)C(C)C [Compound 327]	≥ 8.30
COC(=O)N[C@H](C(=O)N1CCC[C@H]1c1nc2cc(N3CCCN(c4ccc5nc([C@@H]6CCCN6C(=O)[C@@H](NC(=O)OC)C(C)C)[nH]c5c4)CC3)ccc2[nH]1)C(C)C [Compound 328]	≥ 8.30
COC(=O)N[C@H](C(=O)N1CCC[C@H]1c1nc2cc(N3CCN(c4ccc5[nH]c([C@@H]6CCCN6C(=O)[C@@H](NC(=O)OC)C(C)C)nc5c4)[C@@H](C)C3)ccc2[nH]1)C(C)C [Compound 329]	≥ 8.30
COC(=O)N[C@H](C(=O)N1C[C@@H](C)C[C@H]1c1nc2cc(-c3ccc4cc(-c5ccc6[nH]c([C@@H]7C[C@H](C)CN7C(=O)[C@@H](NC(=O)OC)C(C)C)nc6c5)ccc4c3)ccc2[nH]1)C(C)C [Compound 330]	≥ 8.30
COC(=O)N[C@H](C(=O)N1C[C@@H](C)C[C@H]1c1nc2cc(-c3sc4c(C)c(-c5ccc6[nH]c([C@@H]7C[C@H](C)CN7C(=O)[C@@H](NC(=O)OC)C(C)C)nc6c5)sc4c3C)ccc2[nH]1)C(C)C [Compound 331]	≥ 8.30
COC(=O)N[C@H](C(=O)N1C[C@@H](C)C[C@H]1c1nc2cc(-c3cc4cc(-c5ccc6[nH]c([C@@H]7C[C@H](C)CN7C(=O)[C@@H](NC(=O)OC)C(C)C)nc6c5)sc4s3)ccc2[nH]1)C(C)C [Compound 332]	≥ 8.30
